Data set [1] in a line: in vitro. As to conditions: rat, microsomes.
Description: Metabolic stability in rat microsomes assessed as total metabolism
The next data set in a line: physchem. To be noted: buffer, pH 7.4.
Data set [2] is described as follows: in vitro. To be noted: mouse, microsomes.
Description: Metabolic stability in mouse microsomes assessed as total metabolism
Data set [3] in a line: in vitro. To be noted: human, microsomes.
Description: Metabolic stability in human liver microsomes assessed as total metabolism
Data set [4] in a line: in vivo. To be noted: dog, iv, 3 mg/kg.
Description: Volume of distribution at steady state in dog at 3 mg/kg, iv or 10 mg/kg, po
The nature of data set [5]: in vivo. To be noted: rat, po, 10 mg/kg.
The nature of data set [6]: in vivo. To be noted: dog, po, 10 mg/kg.
Data set [7] can be described thus: in vivo. As to conditions: mouse.
Description: Half life in mouse at 3 mg/kg, iv or 10 mg/kg, po
A short description of data set [8]: in vivo. To be noted: rat, iv, 3 mg/kg.
Description: Volume of distribution at steady state in rat at 3 mg/kg, iv or 10 mg/kg, po
The test system of data set [9] is MCF7. To be noted: Homo sapiens.
Description: Antitumor activity against tamoxifen-sensitive human MCF7 cells xenografted in 17-beta-estradiol pellets implanted nu/nu mouse assessed as reduction in tumor growth at 2.5 to 12.5 mg/kg, po administered bid daily and monitored for biweekly
A short description of data set [10]: in vivo. As to conditions: mouse, iv, 3 mg/kg.
Description: Volume of distribution at steady state in mouse at 3 mg/kg, iv or 10 mg/kg, po
Data set [11] in a line: in vivo. As to conditions: mouse, iv, 3 mg/kg. The source holds these as a separate data set.
Description: Clearance in mouse at 3 mg/kg, iv or 10 mg/kg, po
Data set [12] can be described thus: in vivo. As to conditions: dog, iv, 3 mg/kg. This is another data set of the same source.
Description: Clearance in dog at 3 mg/kg, iv or 10 mg/kg, po
The nature of data set [13]: in vivo. As to conditions: rat, iv, 3 mg/kg. The source holds these as a separate data set.
Description: Clearance in rat at 3 mg/kg, iv or 10 mg/kg, po
For data set [14], the system named is MCF7. The format is functional, Homo sapiens. To be noted: at 25 mg/kg.
Description: Antitumor activity against tamoxifen-sensitive human MCF7 cells xenografted in 17-beta-estradiol pellets implanted nu/nu mouse assessed as tumor regression at 25 mg/kg, po administered bid daily and monitored for biweekly
Data set [15] is described as follows: in vivo. As to conditions: mouse, po, 10 mg/kg.
The nature of data set [16]: in vivo. To be noted: dog.
Description: Half life in dog at 3 mg/kg, iv or 10 mg/kg, po
Data set [17] in a line: in vivo. As to conditions: rat.
Description: Half life in rat at 3 mg/kg, iv or 10 mg/kg, po

Activity calls are given as the source filed them. The calls are words filed in the database; no cut-off is given here.
Wherever T/C is given: time not given here.

Description for physchem: Lipophilicity, logD of the compound in phosphate buffer at pH 7.4

For the compound `O=C(O)c1ccc2c(c1)CCCC(c1ccc(SC(F)(F)F)cc1)=C2c1ccc(O[C@H]2CCN(CCCF)C2)cc1`, the metabolised in the data set “in vitro [1]” stood at 4%; in “in vitro [2]”, 12%; in “in vitro [3]”, 10%. Moreover, the logD (usually lipophilicity at a set pH, counting ionised and neutral species) in the data set “physchem” worked out at 3.46.
Take `Oc1ccc(C2=C(c3ccc(O[C@H]4CCN(CCCF)C4)cc3)c3ccc(O)cc3CCC2)cc1`: the metabolised was 48% in the data set “in vitro [1]”, 25% in “in vitro [2]” and 55% in “in vitro [3]”.
The corresponding values for `Oc1ccc2c(c1)C(c1ccc(O[C@H]3CCN(CCCF)C3)cc1)=C(c1ccc(F)cc1Cl)CCC2` are 80%, 30% and 57%.
Regarding `Oc1ccc2c(c1)CCCC(c1ccc(Cl)cc1Cl)=C2c1ccc(O[C@H]2CCN(CCCF)C2)cc1`, the metabolised in the data set “in vitro [1]” was 17%; in the data set “in vitro [2]”, 18%; in the data set “in vitro [3]”, 30%. In the data set “physchem”, the logD stood at 5.27.
As to `Oc1ccc2c(c1)CCCC(c1ccc(F)cc1Cl)=C2c1ccc(O[C@H]2CCN(CCCF)C2)cc1`, the metabolised in “in vitro [1]” turned out to be 44%; in the data set “in vitro [2]”, 20%; in the data set “in vitro [3]”, 31%. Further, in “physchem”, the logD came out at 4.59.
For `Oc1ccc2c(c1)CCCC(c1cccnc1)=C2c1ccc(O[C@H]2CCN(CCCF)C2)cc1`, the metabolised amounted to 80% in the data set “in vitro [1]”, 31% in “in vitro [2]” and 70% in “in vitro [3]”. The same compound displayed a pH-dependent lipophilicity (logD) in “physchem” of 2.11.
In the case of `Oc1ccc2c(c1)CCCC(c1ccccc1)=C2c1ccc(O[C@H]2CCN(CCCF)C2)cc1`, the metabolised in “in vitro [1]” came to 53%; in the data set “in vitro [2]” it was 44%; in the data set “in vitro [3]”, 34%. This compound showed a logD in “physchem” of 4.
With `Oc1ccc(C2=C(c3ccc(O[C@H]4CCN(CCCF)C4)cc3)c3cc(O)ccc3CCC2)cc1`, the metabolised in the data set “in vitro [1]” came to 58%; in “in vitro [2]” it was 55%; in the data set “in vitro [3]”, 49%.
`O=C(O)c1ccc2c(c1)CCCC(c1ccc(Cl)cc1Cl)=C2c1ccc(O[C@H]2CCN(CCCF)C2)cc1` [AMCENESTRANT]: the volume of distribution (Vd) (in general, a proportionality between amount in the body and measured concentration, not a real space) was 0.5 L/kg in “in vivo [4]”, 0.83 L/kg in “in vivo [8]” and 6.1 L/kg in the data set “in vivo [10]”. Moreover, the values for the metabolised in “in vitro [1]”, in “in vitro [2]” and in the data set “in vitro [3]” were 4%, 13% and 12%, respectively. In “physchem”, this compound gave a log distribution coefficient (logD) of 3.25. The bioavailability (in general, the share of a dose that reaches the circulation, judged against a reference dose that is usually intravenous) was 76% in “in vivo [5]”, 54% in the data set “in vivo [6]” and 62% in the data set “in vivo [15]”. Also, the half-life (usually the time in which the quantity being followed falls by half) in “in vivo [7]” is 1.98 h; in “in vivo [16]”, 9.8 h; in “in vivo [17]”, 4.13 h. In addition, the TGI entry in the data set with MCF7 [9] was “Active”. Further, the clearance (in general, a measure of how efficiently the substance is removed, as volume per time) in the data set “in vivo [11]” was 32 mL/min/kg; in the data set “in vivo [12]”, 0.5 mL/min/kg; in “in vivo [13]”, 3.17 mL/min/kg. For the same compound, the T/C with MCF7 [14] was -28%.
Turning to `Oc1ccc2c(c1)CCCC(c1ccc3[nH]ccc3c1)=C2c1ccc(O[C@H]2CCN(CCCF)C2)cc1`, the metabolised in “in vitro [1]” worked out at 75%; in “in vitro [2]”, 61%; in the data set “in vitro [3]”, 39%. The compound also showed a log distribution coefficient (logD) in “physchem” of 3.49.
As for `O=C(O)c1ccc2c(c1)CCCC(c1ccc(OC(F)(F)F)cc1)=C2c1ccc(O[C@H]2CCN(CCCF)C2)cc1`, the metabolised in “in vitro [1]” was 2%; in “in vitro [2]”, 10%; in “in vitro [3]”, 20%. The compound also showed a logD in “physchem” of 3.43.
The corresponding values for `Oc1ccc2c(c1)CCCC(c1ccccc1Cl)=C2c1ccc(O[C@H]2CCN(CCCF)C2)cc1` are 53%, 31%, 41% and 4.11.
The corresponding values for `Oc1ccc2c(c1)CCCC(c1cccc(Cl)c1F)=C2c1ccc(O[C@H]2CCN(CCCF)C2)cc1` are 45%, 41%, 37% and 4.32.
As for `O=C(O)c1ccc2c(c1)CCCC(c1cccc(F)c1Cl)=C2c1ccc(O[C@H]2CCN(CCCF)C2)cc1`, the metabolised in “in vitro [1]” was 2%; in the data set “in vitro [2]” it was 0%; in the data set “in vitro [3]” it was 28%. In the data set “physchem”, this compound displayed a logD of 2.59.
The corresponding values for `O=C(O)c1ccc2c(c1)CCCC(c1ccccc1Cl)=C2c1ccc(O[C@H]2CCN(CCCF)C2)cc1` are 4%, 5%, 0% and 2.63.
The corresponding values for `Oc1ccc2c(c1)CCCC(c1ccncc1)=C2c1ccc(O[C@H]2CCN(CCCF)C2)cc1` are 60%, 39%, 70% and 2.11.
On to `O=C(O)c1ccc2c(c1)CCCC(c1ccc(Cl)cc1)=C2c1ccc(O[C@H]2CCN(CCCF)C2)cc1`, for which the values for the metabolised in the data set “in vitro [1]”, in “in vitro [2]” and in “in vitro [3]” were 1%, 15% and 2%, respectively. Further, the logD in the data set “physchem” turned out to be 2.9.
The corresponding values for `Oc1ccc2c(c1)CCCC(c1ccc3[nH]ncc3c1)=C2c1ccc(O[C@H]2CCN(CCCF)C2)cc1` are 74%, 65%, 72% and 2.35.
